Assay results taken from US12052991B2, “Substituted pyridinyloxybenzenes and salts thereof and use thereof as herbicidal agents” (Bayer Aktiengesellschaft, priority 2018, dated 2024).

Tests used:
Format in all cases: in vivo
[1] = tested on: Stellaria media (STEME); assay: Herbicidal post-emergence action (Table B8); settings: visual rating about 3 weeks after treatment, 100% = plants have died, 0% = like control plants
Procedure, shortened: (§1)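 Post-emergence spray, one-leaf stage (2–3 wk after sowing), sandy loam, greenhouse. WP/EC in water + 0.5% additive, 600 L/ha, 1280 or 320 g/ha. Visual % activity vs untreated after ~3 wk (0% = like control, 100% = plants dead).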

[2] = tested on: Stellaria media (STEME); assay: Herbicidal pre-emergence action, test C (Table C8); settings: visual scoring after about 3 weeks, 100% = plants have died, 0% = like control plants
Procedure, shortened: (§2)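 Greenhouse pre-emergence test: compound formulations (WP or EC) are applied at 1280 or 320 g/ha to the soil surface over sown weed seeds, with 0.5% additive in 600 L/ha water. After about 3 weeks, percent activity is assessed visually, 100% indicating dead plants.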

[3] = tested on: Abutilon theophrasti (ABUTH); assay: Herbicidal pre-emergence action, test C (Table C5); settings: visual scoring after about 3 weeks, 100% = plants have died, 0% = like control plants
Procedure, shortened: as §2

[4] = tested on: Veronica persica (VERPE); assay: Herbicidal post-emergence action (Table B12); settings: visual rating about 3 weeks after treatment, 100% = plants have died, 0% = like control plants
Procedure, shortened: as §1

[5] = tested on: Amaranthus retroflexus (AMARE); assay: Herbicidal post-emergence action (Table B6); settings: visual rating about 3 weeks after treatment, 100% = plants have died, 0% = like control plants
Procedure, shortened: as §1

[6] = tested on: Veronica persica (VERPE); assay: Herbicidal pre-emergence action, test C (Table C12); settings: visual scoring vs untreated controls
Procedure, shortened: as §2

[7] = tested on: harmful plants ABUTH, AMARE, ECHCG, LOLRI, MATIN, POAAN, SETVI, STEME, ALOMY, DIGSA, KCHSC and VERPE; assay: Herbicidal pre-emergence action (test C), summary of Tables C1-C12; settings: application rate of 1280 or 320 g of active ingredient per hectare; summary in words
Procedure, shortened: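 Visual % damage versus untreated plants (0% = like control, 100% = died) was scored after about 3 weeks in the greenhouse. Before emergence, seeds sown in sandy loam got a soil-surface spray of compound as WP or EC plus 0.5% additive, using 600 L/ha water at rates of 1280 or 320 g/ha.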

[8] = tested on: Echinochloa crus-galli (ECHCG); assay: Herbicidal pre-emergence action, test C (Table C1); settings: dosage 1280 g/ha; visual scoring after about 3 weeks; 100% = plants have died, 0% = like control plants
Procedure, shortened: as §2

[9] = tested on: Bassia scoparia (KCHSC); assay: Herbicidal post-emergence action (Table B11); settings: visual rating about 3 weeks after treatment, 100% = plants have died, 0% = like control plants
Procedure, shortened: as §1

[10] = tested on: Lolium rigidum (LOLRI); assay: Herbicidal post-emergence action (Table B2); settings: 1280 g/ha; rated visually after about 3 weeks; 100% = plants have died, 0% = like control plants
Protocol: (§3) Seeds of mono- and dicotyledonous weed plants were placed in plastic pots in sandy loam soil (doubly sown with in each case one species of mono- or dicotyledonous weed plants per pot), covered with soil and cultivated in a greenhouse under controlled growth conditions. 2 to 3 weeks after sowing, the test plants were treated at the one-leaf stage. The compounds of the invention, formulated in the form of wettable powders (WP) or as emulsion concentrates (EC), were applied onto the green parts of the plants as aqueous suspension or emulsion with addition of 0.5% additive at a water application rate of 600 liters per hectare (converted). After the test plants had been kept in the greenhouse under optimum growth conditions for about 3 weeks, the activity of the preparations was rated visually in comparison to untreated controls. For example, 100% activity=the plants have died, 0% activity=like control plants. Tables B1 to B12 below show the effects of selected compounds of the general formula (I) according to Table 1 on various harmful plants and an application rate corresponding to 1280 or 320 g/ha, which were obtained by the experimental procedure mentioned above.

[11] = tested on: Alopecurus myosuroides (ALOMY); assay: Herbicidal post-emergence action (Table B9); settings: rated visually after about 3 weeks, 100% = plants have died, 0% = like control plants
Procedure, shortened: as §1

[12] = tested on: Poa annua (POAAN); assay: Herbicidal pre-emergence action, test C (Table C3); settings: visual scoring after about 3 weeks, 100% = plants have died, 0% = like control plants
Procedure, shortened: as §2

[13] = tested on: Lolium rigidum (LOLRI); assay: Herbicidal pre-emergence action, test C (Table C2); settings: dosage 1280 g/ha; visual scoring after about 3 weeks; 100% = plants have died, 0% = like control plants
Procedure, shortened: as §2

[14] = tested on: Alopecurus myosuroides (ALOMY); assay: Herbicidal pre-emergence action, test C (Table C9); settings: dosage 1280 g/ha; visual scoring after about 3 weeks; 100% = plants have died, 0% = like control plants
Procedure, shortened: as §2

[15] = tested on: Amaranthus retroflexus (AMARE); assay: Herbicidal pre-emergence action, test C (Table C6); settings: visual scoring after about 3 weeks, 100% = plants have died, 0% = like control plants
Procedure, shortened: as §2

[16] = tested on: Matricaria inodora (MATIN); assay: Herbicidal pre-emergence action, test C (Table C7); settings: dosage 1280 g/ha; visual scoring after about 3 weeks; 100% = plants have died, 0% = like control plants
Procedure, shortened: as §2

[17] = tested on: Abutilon theophrasti (ABUTH); assay: Herbicidal post-emergence action (Table B5); settings: rated visually after about 3 weeks, 100% = plants have died, 0% = like control plants
Procedure, shortened: as §1

[18] = tested on: Poa annua (POAAN); assay: Herbicidal post-emergence action (Table B3); settings: rated visually after about 3 weeks, 100% = plants have died, 0% = like control plants
Procedure, shortened: as §1

[19] = tested on: Digitaria sanguinalis (DIGSA); assay: Herbicidal post-emergence action (Table B10); settings: visual rating about 3 weeks after treatment, 100% = plants have died, 0% = like control plants
Procedure, shortened: as §1

[20] = tested on: Setaria viridis (SETVI); assay: Herbicidal pre-emergence action, test C (Table C4); settings: visual scoring after about 3 weeks, 100% = plants have died, 0% = like control plants
Procedure, shortened: as §2

[21] = tested on: Digitaria sanguinalis (DIGSA); assay: Herbicidal pre-emergence action, test C (Table C10); settings: visual scoring after about 3 weeks, 100% = plants have died, 0% = like control plants
Procedure, shortened: as §2

[22] = tested on: Echinochloa crus-galli (ECHCG); assay: Herbicidal post-emergence action (Table B1); settings: rated visually after about 3 weeks, 100% = plants have died, 0% = like control plants
Procedure, shortened: as §1

[23] = tested on: Bassia scoparia (KCHSC); assay: Herbicidal pre-emergence action, test C (Table C11); settings: visual scoring vs untreated controls
Procedure, shortened: as §2

[24] = tested on: harmful plants ABUTH, AMARE, ECHCG, LOLRI, MATIN, POAAN, SETVI, STEME, ALOMY, DIGSA, KCHSC and VERPE; assay: Herbicidal post-emergence action, summary of Tables B1-B12; settings: application rate of 1280 or 320 g of active ingredient per hectare; summary in words
Procedure, shortened: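 Activity scored by eye roughly 3 weeks post-treatment against untreated plants, from 0% (no effect) to 100% (plants dead). Application rates were 1280 or 320 g/ha, as aqueous WP/EC spray plus 0.5% additive at 600 L/ha, onto one-leaf-stage weeds grown 2–3 weeks in sandy loam.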

[25] = tested on: Setaria viridis (SETVI); assay: Herbicidal post-emergence action (Table B4); settings: 1280 g/ha; rated visually after about 3 weeks; 100% = plants have died, 0% = like control plants
Protocol: as §3

[26] = tested on: Matricaria inodora (MATIN); assay: Herbicidal post-emergence action (Table B7); settings: rated visually after about 3 weeks, 100% = plants have died, 0% = like control plants
Protocol: as §3

Structure (SMILES): Fc1ccc(Oc2ncc(Cl)cc2F)c(-c2cc(C(F)F)on2)c1 [Example 1-31]
- Post-emergence action against Stellaria media (STEME) ([1]; dosage 320 g/ha): 100%
- Post-emergence action against Stellaria media (STEME) ([1]; dosage 1280 g/ha): 100%
- Pre-emergence action against Stellaria media (STEME) ([2]; dosage 320 g/ha): 100%
- Pre-emergence action against Stellaria media (STEME) ([2]; dosage 1280 g/ha): 100%
- Pre-emergence action against Abutilon theophrasti (ABUTH) ([3]; dosage 320 g/ha): 90%
- Pre-emergence action against Abutilon theophrasti (ABUTH) ([3]; dosage 1280 g/ha): 100%
- Post-emergence action against Veronica persica (VERPE) ([4]; dosage 320 g/ha): 100%
- Post-emergence action against Veronica persica (VERPE) ([4]; dosage 1280 g/ha): 100%
- Post-emergence action against Amaranthus retroflexus (AMARE) ([5]; dosage 320 g/ha): 100%
- Post-emergence action against Amaranthus retroflexus (AMARE) ([5]; dosage 1280 g/ha): 100%
- Pre-emergence action against Veronica persica (VERPE) ([6]; dosage 320 g/ha): 100%
- Pre-emergence action against Veronica persica (VERPE) ([6]; dosage 1280 g/ha): 100%
- herbicidal activity against the harmful plants of Tables C1-C12 in pre-emergence treatment [7]: very good herbicidal activity
- Pre-emergence action against Echinochloa crus-galli (ECHCG) [8]: 100%
- Post-emergence action against Bassia scoparia (KCHSC) ([9]; dosage 320 g/ha): 90%
- Post-emergence action against Bassia scoparia (KCHSC) ([9]; dosage 1280 g/ha): 100%
- Post-emergence action against Lolium rigidum (LOLRI) [10]: 90%
- Post-emergence action against Alopecurus myosuroides (ALOMY) ([11]; 320 g/ha): 100%
- Post-emergence action against Alopecurus myosuroides (ALOMY) ([11]; 1280 g/ha): 100%
- Pre-emergence action against Poa annua (POAAN) ([12]; dosage 320 g/ha): 90%
- Pre-emergence action against Poa annua (POAAN) ([12]; dosage 1280 g/ha): 100%
- Pre-emergence action against Lolium rigidum (LOLRI) [13]: 100%
- Pre-emergence action against Alopecurus myosuroides (ALOMY) [14]: 100%
- Pre-emergence action against Amaranthus retroflexus (AMARE) ([15]; dosage 320 g/ha): 100%
- Pre-emergence action against Amaranthus retroflexus (AMARE) ([15]; dosage 1280 g/ha): 100%
- Pre-emergence action against Matricaria inodora (MATIN) [16]: 90%
- Post-emergence action against Abutilon theophrasti (ABUTH) ([17]; 320 g/ha): 90%
- Post-emergence action against Abutilon theophrasti (ABUTH) ([17]; 1280 g/ha): 100%
- Post-emergence action against Poa annua (POAAN) ([18]; 320 g/ha): 100%
- Post-emergence action against Poa annua (POAAN) ([18]; 1280 g/ha): 100%
- Post-emergence action against Digitaria sanguinalis (DIGSA) ([19]; dosage 320 g/ha): 90%
- Post-emergence action against Digitaria sanguinalis (DIGSA) ([19]; dosage 1280 g/ha): 100%
- Pre-emergence action against Setaria viridis (SETVI) ([20]; dosage 320 g/ha): 100%
- Pre-emergence action against Setaria viridis (SETVI) ([20]; dosage 1280 g/ha): 100%
- Pre-emergence action against Digitaria sanguinalis (DIGSA) ([21]; dosage 320 g/ha): 90%
- Pre-emergence action against Digitaria sanguinalis (DIGSA) ([21]; dosage 1280 g/ha): 100%
- Post-emergence action against Echinochloa crus-galli (ECHCG) ([22]; 320 g/ha): 90%
- Post-emergence action against Echinochloa crus-galli (ECHCG) ([22]; 1280 g/ha): 100%
- Pre-emergence action against Bassia scoparia (KCHSC) ([23]; dosage 320 g/ha): 90%
- Pre-emergence action against Bassia scoparia (KCHSC) ([23]; dosage 1280 g/ha): 100%
- herbicidal activity against the harmful plants of Tables B1-B12 in post-emergence treatment [24]: very good herbicidal activity
- Post-emergence action against Setaria viridis (SETVI) [25]: 100%

Structure (SMILES): Fc1cc(Cl)cnc1Oc1ccccc1-c1ccc(Cl)cn1 [Example 1-74]
- Post-emergence action against Matricaria inodora (MATIN) ([26]; 320 g/ha): 100%
- Post-emergence action against Matricaria inodora (MATIN) ([26]; 1280 g/ha): 100%
- Post-emergence action against Stellaria media (STEME) ([1]; dosage 1280 g/ha): 90%
- Post-emergence action against Veronica persica (VERPE) ([4]; dosage 320 g/ha): 100%
- Post-emergence action against Veronica persica (VERPE) ([4]; dosage 1280 g/ha): 100%
- Post-emergence action against Amaranthus retroflexus (AMARE) ([5]; dosage 320 g/ha): 100%
- Post-emergence action against Amaranthus retroflexus (AMARE) ([5]; dosage 1280 g/ha): 100%
- Pre-emergence action against Veronica persica (VERPE) ([6]; dosage 1280 g/ha): 90%
- herbicidal activity against the harmful plants of Tables C1-C12 in pre-emergence treatment [7]: very good herbicidal activity
- Pre-emergence action against Poa annua (POAAN) ([12]; dosage 320 g/ha): 100%
- Pre-emergence action against Poa annua (POAAN) ([12]; dosage 1280 g/ha): 100%
- Pre-emergence action against Alopecurus myosuroides (ALOMY) [14]: 100%
- Pre-emergence action against Amaranthus retroflexus (AMARE) ([15]; dosage 320 g/ha): 90%
- Pre-emergence action against Amaranthus retroflexus (AMARE) ([15]; dosage 1280 g/ha): 90%
- Post-emergence action against Abutilon theophrasti (ABUTH) ([17]; 320 g/ha): 90%
- Post-emergence action against Abutilon theophrasti (ABUTH) ([17]; 1280 g/ha): 100%
- Post-emergence action against Poa annua (POAAN) ([18]; 320 g/ha): 100%
- Post-emergence action against Poa annua (POAAN) ([18]; 1280 g/ha): 100%
- Pre-emergence action against Setaria viridis (SETVI) ([20]; dosage 1280 g/ha): 100%
- Pre-emergence action against Digitaria sanguinalis (DIGSA) ([21]; dosage 320 g/ha): 90%
- Pre-emergence action against Digitaria sanguinalis (DIGSA) ([21]; dosage 1280 g/ha): 100%
- herbicidal activity against the harmful plants of Tables B1-B12 in post-emergence treatment [24]: very good herbicidal activity
